Activity calls are given as the source filed them. The rule behind the calls is not given here.
What was measured:
[1] = tested on: SH-SY5Y; assay: Anti-ferroptosis activity against RSL3-induced ferroptosis in human SH-SY5Y cells assessed as reversal of ferroptosis by measuring cell viability measured after 48 hrs by MTT assay; type: functional, cell-based
[2] = Plasma stability in human plasma assessed as half life; type: ADME, cell-free
[3] = tested on: SH-SY5Y; assay: Anti-ferroptotic activity against RSL3 induced human SH-SY5Y cells inhibition of RSL3 induced in LPO accumulation at 1.5 uM measured after 16 hrs by BODIPY581/591 based flow cytometric analysis; type: functional, cell-based
[4] = tested on: SH-SY5Y; assay: Prevention of STS-induced apoptosis in human SH-SY5Y cells assessed as cell viability at 5 uM measured after 48 hrs by MTT assay; type: functional, cell-based
[5] = tested on: SH-SY5Y; assay: Prevention of RSL3-induced ferroptosis in human SH-SY5Y cells assessed as cell viability at 5 uM measured after 48 hrs by MTT assay; type: functional, cell-based
[6] = Plasma stability in rat plasma assessed as recovery measured after 12 hrs; type: ADME, cell-free; details: read-out: Drug recovery
[7] = tested on: HT-1080; assay: Prevention of RSL3-induced ferroptosis morphological changes in human HT-1080 cells assessed as shrinkage, swelling, and membrane rupture measured up to 48 hrs; type: functional, cell-based
[8] = Toxicity in Balb/c mouse assessed as histopathological changes in kidney at 20 mg/kg, iv (tail vein) measured for 24 hrs by H and E staining based analysis; type: organism-based; details: in vivo
[9] = Toxicity in Balb/c mouse assessed as histopathological changes in heart at 20 mg/kg, iv (tail vein) measured for 24 hrs by H and E staining based analysis; type: organism-based; details: in vivo
[10] = Toxicity in Balb/c mouse assessed as histopathological changes in liver at 20 mg/kg, iv (tail vein) measured for 24 hrs by H and E staining based analysis; type: organism-based; details: in vivo
[11] = Metal chelating activity assessed as compound-Fe2+ complex formation by UV-Vis absorption spectra analysis
[12] = Metal chelating activity assessed as compound-Fe3+ complex formation by UV-Vis absorption spectra analysis
[13] = tested on: OS-RC-2; assay: Anti-ferroptosis activity against RSL3-induced ferroptosis in human OS-RC-2 cells assessed as reversal of ferroptosis by measuring cell viability measured after 48 hrs by MTT assay; type: functional, cell-based
[14] = Toxicity in Balb/c mouse assessed as histopathological changes in lung at 20 mg/kg, iv (tail vein) measured for 24 hrs by H and E staining based analysis; type: organism-based; details: in vivo
[15] = Metabolic stability in rat liver homogenate assessed as recovery measured after 12 hrs; type: ADME, tissue-based; details: read-out: Drug recovery
[16] = tested on: Mus musculus; assay: Protection against middle cerebral artery occlusion (MCAO)-induced Balb/c mouse assessed as reduction in MDA level in lesioned hemisphere at 20 mg/kg, iv (tail vein) measured for 24 hrs by lipid peroxidation MDA assay; type: functional, organism-based
[17] = Antioxidant activity assessed as DPPH radical scavenging activity measured after 30 mins in dark by (DPPH) bleaching assay; type: functional
[18] = tested on: SH-SY5Y; assay: Anti-ferroptotic activity against RSL3 induced human SH-SY5Y cells inhibition of RSL3 induced in LPO accumulation at 1.5 uM measured after 16 hrs by DCFH-DA based confocal laser scanning microscopic (CLSM) imaging analysis; type: functional, cell-based
[19] = tested on: SH-SY5Y; assay: Anti-ferroptotic activity against RSL3 induced human SH-SY5Y cells inhibition of RSL3 induced in MDA level at 1.5 uM measured after 16 hrs by lipid peroxidation MDA assay; type: functional, cell-based
[20] = Cytotoxicity against human HUVEC at 30 uM measured after 48 hrs incubation by MTT assay; type: toxicity, cell-based; details: huve
[21] = Free radical trapping antioxidant activity in di-tert-undecyl hyponitrite (DTUN) trigged STY-BODIPY-embedded egg phosphatidylcholine liposomes assessed as inhibition of phospholipid peroxidation by measuring inhibition rate constant of STY-BODIPY at 1 uM by fluorescence-enabled inhibited autoxidation method (FENIX); type: functional
[22] = Plasma stability in rat plasma assessed as half life; type: ADME, cell-free
[23] = tested on: HT-1080; assay: Anti-ferroptosis activity against RSL3-induced ferroptosis in human HT-1080 cells assessed as reversal of ferroptosis by measuring cell viability measured after 48 hrs by MTT assay; type: functional, cell-based
[24] = Plasma stability in human plasma assessed as recovery measured after 12 hrs; type: ADME, cell-free; details: read-out: Drug recovery
[25] = tested on: SH-SY5Y; assay: Prevention of TSZ-induced necroptosis in human SH-SY5Y cells assessed as cell viability at 5 uM measured after 48 hrs by MTT assay; type: functional, cell-based
[26] = tested on: L02; assay: Cytotoxicity against human LO2 cells at 30 uM measured after 48 hrs incubation by MTT assay; type: toxicity, cell-based; details: l02, 48 h
[27] = tested on: Mus musculus; assay: Protection against middle cerebral artery occlusion (MCAO)-induced Balb/c mouse assessed as reduction in infarct volume in brain at 20 mg/kg, iv (tail vein) measured for 24 hrs by TTC staining (reference value: 50.08%); type: functional; parameters: scale not given: the % may be the effect or the level left
[28] = Metabolic stability in rat liver homogenate assessed as half life; type: ADME, tissue-based
[29] = Toxicity in Balb/c mouse assessed as histopathological changes in spleen at 20 mg/kg, iv (tail vein) measured for 24 hrs by H and E staining based analysis; type: organism-based; details: in vivo
[30] = tested on: Mus musculus; assay: Protection against middle cerebral artery occlusion (MCAO)-induced Balb/c mouse assessed as reduction in PTGS2 mRNA level in lesioned hemisphere at 20 mg/kg, iv (tail vein) measured for 24 hrs by qRT-PCR analysis; type: functional, organism-based

`Oc1ccc(-c2cn3ccccc3n2)c(O)c1` gave an IC50 [1] of 2380 nM.

With `COc1ccc(Nc2c(C3CCCCC3)nc3ccccn23)cc1Cl` the IC50 [1] was 97 nM, the half-life [2] was greater than 720 min and the Activity [3] was “Active”. The Activity [4] was “inactive”, the Activity [5] was “Active” and the remaining at 12 h [6] was 100%. The Activity [7] was “Active”, the Activity [8] was “Non-toxic” and the Activity [9] was “Non-toxic”. For the same compound, the Activity [10] was “Non-toxic”, the Activity [11] was “inactive” and the Activity [12] was “inactive”. For the same compound, the Activity [13] was “Active”, the Activity [14] was “Non-toxic” and the remaining at 12 h [15] was 91.1%. For the same compound, the Activity [16] was “Active”, the Activity [17] was “Dose-dependent-effect” and the Activity [18] was “Active”. The Activity [19] was “Active”, the Activity [20] was “Non-toxic” and the Ki [21] was 2 10^4/M/s. For the same compound, the half-life [22] was greater than 720 min, the Activity [23] was “Active” and the remaining at 12 h [24] was 100%. For the same compound, the Activity [25] was “inactive”, the Activity [26] was “Non-toxic” and the Activity [27] was 25.28%. For the same compound, the half-life [28] was greater than 720 min, the Activity [29] was “Non-toxic” and the Activity [30] was “Active”.

Work on `Clc1cc(Cl)cc(CNc2c(-c3cc(Cl)cc(Cl)c3)nc3ccccn23)c1` yielded an IC50 [1] of 1930 nM.

In the case of `CC(C)(C)Nc1c(-c2ccoc2)nc2ccccn12`, the IC50 [1] is reported as greater than 10000 nM.

`Cc1cn2cccc(-c3ccccc3O)c2n1` showed an IC50 [1] greater than 30000 nM.

In the case of `COc1ccc(Nc2c(-c3cc(Cl)cc(Cl)c3)nc3cc(COCc4cccc(Cl)c4)ccn23)cc1Cl`, the IC50 [1] is reported as 802 nM.

For `CCOC(=O)CNc1c(-c2ccc(OC)cc2)nc2ccccn12`, the IC50 [1] was 3940 nM.

`Cc1ccccc1-c1cn2ccccc2n1` gave an IC50 [1] greater than 100000 nM.

For `COc1ccc(Nc2c(-c3ccoc3)nc3ccccn23)cc1Cl`, the IC50 [1] was 99 nM, the half-life [2] was greater than 720 min and the Activity [3] was “Active”. The Activity [4] was “inactive”, the Activity [5] was “Active” and the remaining at 12 h [6] was 100%. The Activity [7] was “Active”, the Activity [11] was “inactive” and the Activity [12] was “inactive”. For the same compound, the Activity [13] was “Active”, the remaining at 12 h [15] was 95.8% and the Activity [17] was “Dose-dependent-effect”. For the same compound, the Activity [18] was “Active”, the Activity [19] was “Active” and the Activity [20] was “Non-toxic”. The Ki [21] was 1.6 10^4/M/s, the half-life [22] was greater than 720 min and the Activity [23] was “Active”. The remaining at 12 h [24] was 100%, the Activity [25] was “inactive” and the Activity [26] was “Non-toxic”. For the same compound, the half-life [28] was greater than 720 min.

With `CCOC(=O)c1ccc(NC2CCCCC2)c(N)c1` the IC50 [1] was 20 nM, the half-life [2] was greater than 720 min and the Activity [5] was “Active”. The remaining at 12 h [6] was 0%, the remaining at 12 h [15] was 7.1% and the half-life [22] was 126 min. It also gave a remaining at 12 h [24] of 94.1% and a half-life [28] of 40.2 min.

Work on `Clc1cc(Cl)cc(-c2nc3ccc4ccccc4n3c2NC2CCCCC2)c1` yielded an IC50 [1] of 920 nM.

With `Oc1ccccc1-c1cn2ccccc2n1` the IC50 [1] was 9880 nM.

`COc1ccc(Nc2c(-c3cc(Cl)cc(Cl)c3)nc3ccc(N4CCN(C)CC4)cn23)cc1Cl` showed an IC50 [1] of 84 nM.

With `CCOC(=O)CNc1c(-c2ccccc2)nc2ccccn12` the IC50 [1] was 2930 nM.

Work on `c1ccc2c(c1)ccc1nc(-c3ccsc3)c(NC3CCCCC3)n12` yielded an IC50 [1] of 426 nM.

In the case of `c1ccn2c(NC34C[C@H]5C[C@@H](C3)C[C@@H](C4)C5)c(-c3cscn3)nc2c1`, the IC50 [1] is reported as greater than 30000 nM.

In the case of `Clc1cc(Cl)cc(CNc2c(-c3cc(Cl)cc(Cl)c3)nc3ccc4ccccc4n23)c1`, the IC50 [1] is reported as 766 nM.

In the case of `Oc1ccccc1-c1nc2ccccn2c1Cc1ccccc1`, the IC50 [1] is reported as 5210 nM.

`Clc1cc(Cl)cc(CNc2c(-c3ccoc3)nc3ccccn23)c1` gave an IC50 [1] of 1560 nM.

`COc1ccc(Nc2c(-c3ccccc3Cl)nc3ccc4ccccc4n23)cc1Cl` gave an IC50 [1] of 65 nM.

`c1ccn2c(NC34C[C@H]5C[C@@H](C3)C[C@@H](C4)C5)c(C3CCCCC3)nc2c1` gave an IC50 [1] greater than 10000 nM.

Compound `Cc1cn2cccc(-c3ccccc3N)c2n1` has an IC50 [1] greater than 100000 nM.

In the case of `FC(F)(F)c1ccccc1-c1nc2ccc3ccccc3n2c1NC1CCCCC1`, the IC50 [1] is reported as 104 nM.

For `c1coc(CNc2c(-c3cscn3)nc3ccccn23)c1`, the IC50 [1] was 2640 nM.

In the case of `CC(=O)N(O)CCCCCNC(=O)CCC(=O)N(O)CCCCCNC(=O)CCC(=O)N(O)CCCCCN`, the Activity [11] is reported as “Active” and the Activity [12] is reported as “Active”.

Work on `Clc1cc(Cl)cc(CNc2c(-c3cscn3)nc3ccccn23)c1` yielded an IC50 [1] of 2030 nM.

With `COc1ccc(Nc2c(-c3c(Cl)cc(Cl)cc3Cl)nc3ccc4ccccc4n23)cc1Cl` the IC50 [1] was 22 nM, the half-life [2] was less than 4.8 min and the remaining at 12 h [6] was 42.3%. It also gave a remaining at 12 h [15] of 32.2%, a half-life [22] of less than 4.8 min and a remaining at 12 h [24] of 47.9%. The half-life [28] was less than 4.8 min.

For `COc1ccc(-c2nc3ccccn3c2NC(C)(C)C)cc1`, the IC50 [1] was greater than 30000 nM.

In the case of `Nc1ccccc1-c1cn2ccccc2n1`, the IC50 [1] is reported as greater than 10000 nM.

With `Clc1cc(Cl)cc(-c2nc3ccccn3c2NC2CCCCC2)c1` the IC50 [1] was 625 nM.

`Clc1cccc(-c2nc3ccccn3c2NC23C[C@H]4C[C@@H](C2)C[C@@H](C3)C4)c1` showed an IC50 [1] greater than 30000 nM.

In the case of `COc1ccc(Nc2c(-c3csc4ccccc34)nc3ccccn23)cc1Cl`, the IC50 [1] is reported as 195 nM.

`Clc1cccc(CNc2c(-c3cccc(Cl)c3)nc3ccccn23)c1` gave an IC50 [1] of 181 nM.

`FC(F)(F)c1ccccc1-c1nc2ccccn2c1NCc1ccco1` showed an IC50 [1] of 412 nM.

For `COc1ccc(-c2nc3ccccn3c2NC23C[C@H]4C[C@@H](C2)C[C@@H](C3)C4)cc1`, the IC50 [1] was 1870 nM.

For `Cc1ccc2nc(-c3ccc(N4CCOCC4)cc3)c(NC3CCCCC3)n2c1`, the IC50 [1] was greater than 10000 nM.

With `COc1ccc(Nc2c(-c3ccsc3)nc3ccccn23)cc1Cl` the IC50 [1] was 476 nM.

`Clc1cccc(CNc2c(-c3cccc(Cl)c3)nc3ccc4ccccc4n23)c1` showed an IC50 [1] of 287 nM.

`Oc1ccccc1-c1cccn2c(Cc3ccccc3)c(-c3ccccc3)nc12` gave an IC50 [1] greater than 30000 nM.

With `Cc1ccc2nc(-c3cccc(Cl)c3)c(NC(C)(C)C)n2c1` the IC50 [1] was greater than 10000 nM.

`COc1ccc(Nc2c(C3CCCCC3)nc3ccc(F)cn23)cc1Cl` gave an IC50 [1] of 80 nM.

Work on `COc1ccc(-c2nc3ccccn3c2NC2CCCCC2)cc1` yielded an IC50 [1] greater than 10000 nM.
